Laboratory results from publication PMC10535816, “May 1,2-Dithiolane-4-carboxylic Acid and Its Derivatives Serve as a Specific Thioredoxin Reductase 1 Inhibitor?” (Molecules, 2023).

Target: T1, TrxR1 (thioredoxin reductase 1) (Rattus norvegicus, UniProt O89049)
T1 construct: gene Txnrd1
T1 sequence (O89049 1-499): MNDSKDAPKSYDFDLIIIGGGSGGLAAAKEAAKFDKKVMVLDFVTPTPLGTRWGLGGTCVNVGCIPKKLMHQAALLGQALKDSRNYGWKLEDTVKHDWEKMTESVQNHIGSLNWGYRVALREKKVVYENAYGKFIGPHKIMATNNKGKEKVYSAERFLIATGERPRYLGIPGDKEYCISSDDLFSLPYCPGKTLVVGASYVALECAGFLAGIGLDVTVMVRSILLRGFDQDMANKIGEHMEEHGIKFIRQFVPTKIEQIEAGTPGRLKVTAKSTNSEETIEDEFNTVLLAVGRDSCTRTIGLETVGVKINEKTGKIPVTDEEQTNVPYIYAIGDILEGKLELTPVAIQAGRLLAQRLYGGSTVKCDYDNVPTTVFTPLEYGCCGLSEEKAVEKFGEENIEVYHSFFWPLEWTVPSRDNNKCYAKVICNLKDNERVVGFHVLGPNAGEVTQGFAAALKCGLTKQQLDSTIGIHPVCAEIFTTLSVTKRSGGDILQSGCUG
Assay: biochemical

With `CC[C@H](C)[C@H](NC(=O)C1CSSC1)C(=O)O` [2g, 2-(1,2-Dithiolane-4-carboxamido)-3-methylpentanoic acid] as the compound, how does the IC50 read?
Its IC50 is 186 ± 14.9 µM.

With `O=C(Nc1cc2ccccc2oc1=O)C1CSSC1` [2j, N-(2-Oxo-2H-chromen-3-yl)-1,2-dithiolane-4-carboxamide] as the compound, how does the IC50 read?
Its IC50 is 5.3 ± 0.4 µM.

With `O=C(Nc1ccc2oc(=O)ccc2c1)C1CSSC1` [2k, N-(2-oxo-2H-chromen-6-yl)-1,2-dithiolane-4-carboxamide] as the compound, how does the IC50 read?
The IC50 was 36.3 ± 2.9 µM.
